Converted amounts (≈) assume the structure as drawn. Read-outs that look alike come from different tables or passages of the source. Where a SMILES comes first, the peptide text is derived from it. [ ]: non-standard residue; d: D form. The star is where a group is joined. Guan = guanidino group added at N-terminus (guanidation), N=C(N)*; hArg = N=C(N)NCCCC[C@H](N)C(=O)O; NMeL = CN[C@@H](CC(C)C)C(=O)O; Agp = N=C(N)NC[C@H](N)C(=O)O; Orn = NCCC[C@H](N)C(=O)O; OPr = CCCO*
What was measured:
[1] = system: E. coli 45849; assay: Growth inhibition assay (MIC); assay type: cell-based, Escherichia coli; details: multidrug resistant strain; 1% TSB, 37° C., 20 hrs
Method: (§1) The minimal inhibition concentrations (MIC) of the apidaecin-derived peptides and peptide-derivatives were determined by a growth inhibition assay using a serial peptide dilution in sterilized round-bottom 96-well plates (polystyrene, U-bottom, Greiner Bio-One GmbH) with a final volume of 100 μL per well. The bacteria, e.g., E. coli BL21 A1, were grown in nutrient broth (NB, Carl Roth GmbH+Co. KG, Karlsruhe, Germany) at 37° C. over night. To each well of the 96-well plate, 50 μL of the overnight culture adjusted to 5×10^6 CFU/mL in 1% TSB were added. Lyophilized peptides and peptidomimetics were dissolved in 1% TSB (tryptic soy broth) or water to give a final concentration of 250 μg/mL. Fifty μL of the peptide or peptidomimetics solution were added to the first well of a row on the plate and mixed. Fifty μL of the first well containing the peptide solution were transferred to the second well, mixed and again 50 μL transferred to the next well and so on. Thereby, a two-fold dilution series was obtained starting at 250 μg/mL in the first well down to 120 ng/mL in the 12th well of a row giving a final peptide or peptidomimetics concentration from 125 μg/mL (well 1) to 60 ng/mL (well 12). Plates were incubated at 37° C. for 20 hrs. The absorbance was measured at 595 nm using a TECAN micro plate spectrophotometer (Tecan, Germany). All peptides and peptidomimetics were measured in triplicates. Sterilized water was used as a negative control.
(§2) The following multidrug resistant bacteria strains were tested: • Eschericha coli 45849 and D31, • Klebsiella pneumoniae 123132 and K6, • Salmonella typhi S5 and Salmonella enterica subsp. enterica serovar Typhimurium (ATCC 700408), • Rhizobium radiobacter (ATCC 15955 deposited as Agrobacterium tumefaciens).

[2] = system: S. typhi S5; assay type: cell-based, Salmonella typhi; details: S5, 20 h
Method: as §1, §2

[3] = system: E. coli D31; assay type: cell-based, Escherichia coli; details: D31, 20 h
Method: as §1, §2

[4] = system: K. Pneumonia 123132; assay: Growth inhibition assay (MIC); assay type: cell-based, Klebsiella pneumoniae; details: multidrug resistant strain; 1% TSB, 37° C., 20 hrs
Method: as §1, §2

[5] = system: K. Pneumonia K6, ATCC 700603; assay: Growth inhibition assay (MIC); assay type: cell-based, Klebsiella pneumoniae; details: multidrug resistant strain; 1% TSB, 37° C., 20 hrs
Method: as §1, §2

[6] = system: S. enterica subsp. Enterica serovar. typhi G10215 ATCC 700408; assay type: cell-based, Salmonella enterica; details: ATCC 700408, 20 h
Method: as §1, §2

[7] = system: R. radiobatter ATCC 15955; assay: Growth inhibition assay (MIC); assay type: cell-based, Rhizobium radiobacter; details: multidrug resistant strain; 1% TSB, 37° C., 20 hrs
Method: as §1, §2

[8] = system: E. coli BL 21 AI; assay: Growth inhibition assay (MIC); assay type: cell-based, Escherichia coli; details: 1% TSB, 37° C., 20 hrs
Procedure, shortened: (§3)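 Bacteria grown overnight in NB at 37° C. were adjusted to 5×10^6 CFU/mL in 1% TSB and mixed 1:1 with a two-fold peptide series (final 125 μg/mL–60 ng/mL). After 20 hrs at 37° C., A595 was read; triplicates.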

[9] = system: M. luteus ATCC 10240; assay type: cell-based, Micrococcus luteus
Procedure, shortened: as §3

[10] = system: E. coli 1103; assay type: cell-based, Escherichia coli
Method: as §1
(§4) The bacteria strains were tested: • Eschericha coli 1103, 10233, BL 21 AI, DC 2, • Klebsiella pneumoniae 681, • Micrococcus luteus ATCC 10240, • Mycobacterium vaccae • Bactillus subtillis 347.

[11] = system: K. pneumonia 681; assay type: cell-based, Klebsiella pneumoniae
Method: as §1, §4

[12] = system: B. subtilis 347; assay type: cell-based, Bactillus subtillis
Method: as §1, §4

| Compound | MIC E. coli 45849 [1] | MIC S. typhi S5 [2] | MIC E. coli D31 [3] | MIC K. Pneumonia 123132 [4] | MIC K. Pneumonia K6, ATCC 700603 [5] | MIC S. enterica subsp. Enterica serovar. typhi G10215 ATCC 700408 [6] | MIC R. radiobatter ATCC 15955 [7] | MIC E. coli BL 21 AI [8] | MIC M. luteus ATCC 10240 ([9]; 1% TSB, 37° C., 20 hrs) | MIC E. coli 1103 ([10]; 1% TSB, 37° C., 20 hrs) | MIC K. pneumonia 681 ([11]; 1% TSB, 37° C., 20 hrs) | MIC B. subtilis 347 ([12]; 1% TSB, 37° C., 20 hrs) | MIC M. luteus ATCC 10240 ([9]; ATCC 10240, 20 h) | MIC E. coli 1103 ([10]; 1103, 20 h) | MIC K. pneumonia 681 ([11]; 20 h) | MIC B. subtilis 347 ([12]; 347, 20 h) |
| --- | --- | --- | --- | --- | --- | --- | --- | --- | --- | --- | --- | --- | --- | --- | --- | --- |
| CC[C@H](C)[C@H](NC(=O)[C@H](Cc1ccc(O)cc1)NC(=O)[C@@H](NC(=O)[C@@H]1CCCN1C(=O)[C@H](CCCNC(=N)N)NC(=O)[C@H](CC(N)=O)NC(=O)[C@H](CC(N)=O)NC(=O)[C@@H](N)CCCN)C(C)C)C(=O)N1CCC[C@H]1C(=O)N[C@@H](CCCNC(=N)N)C(=O)N1CCC[C@H]1C(=O)N[C@@H](CCCNC(=N)N)C(=O)N1CCC[C@H]1C(=O)N1CCC[C@H]1C(=O)N[C@@H](Cc1c[nH]cn1)C(=O)N1CCC[C@H]1C(=O)N[C@@H](CCCNC(=N)N)C(=O)N(C)[C@@H](CC(C)C)C(N)=O [compound 47] (H-[Orn]NNRPVYIPRPRPPHPR[NMeL]-NH2) | 4 µg/mL (≈ 1.81 µM) | 32 µg/mL (≈ 14.5 µM) | 8 µg/mL (≈ 3.63 µM) | 32 µg/mL (≈ 14.5 µM) | 32 to 64 µg/mL | 8 µg/mL (≈ 3.63 µM) | 1.3 µg/mL (≈ 0.589 µM) | – | – | – | – | – | – | – | – | – |
| 147 (Guan-[Orn]NNRPVYIPRPRPPHPRL-OPr) [compound 147] | – | – | – | – | – | – | – | 4 µg/mL | 16 µg/mL | 16 µg/mL | 8 µg/mL | 64 µg/mL | – | – | – | – |
| CC[C@H](C)[C@H](NC(=O)[C@H](Cc1ccc(O)cc1)NC(=O)[C@@H](NC(=O)[C@@H]1CCCN1C(=O)[C@H](CCCNC(=N)N)NC(=O)[C@H](CC(N)=O)NC(=O)[C@H](CC(N)=O)NC(=O)[C@H](CCCN)NC(C)=O)C(C)C)C(=O)N1CCC[C@H]1C(=O)N[C@@H](CCC(N)=O)C(=O)N1CCC[C@H]1C(=O)N[C@@H](CCCNC(=N)N)C(=O)N1CCC[C@H]1C(=O)N1CCC[C@H]1C(=O)N[C@@H](Cc1c[nH]cn1)C(=O)N1CCC[C@H]1C(=O)N[C@@H](CCCNC(=N)N)C(=O)N[C@@H](Cc1ccccc1)C(N)=O [compound 41] (Ac-[Orn]NNRPVYIPQPRPPHPRF-NH2) | 4 µg/mL (≈ 1.79 µM) | 8 µg/mL (≈ 3.57 µM) | >128 µg/mL | 32 µg/mL (≈ 14.3 µM) | 128 µg/mL (≈ 57.1 µM) | 8 µg/mL (≈ 3.57 µM) | 5.25 µg/mL (≈ 2.34 µM) | – | – | – | – | – | – | – | – | – |
| CC[C@H](C)[C@H](NC(=O)[C@H](Cc1ccc(O)cc1)NC(=O)[C@@H](NC(=O)[C@@H]1CCCN1C(=O)[C@H](CCCNC(=N)N)NC(=O)[C@H](CC(N)=O)NC(=O)[C@H](CC(N)=O)NC(=O)CNC(C)=O)C(C)C)C(=O)N1CCC[C@H]1C(=O)N[C@@H](CCC(N)=O)C(=O)N1CCC[C@H]1C(=O)N[C@@H](CCCNC(=N)N)C(=O)N1CCC[C@H]1C(=O)N1CCC[C@H]1C(=O)N[C@@H](Cc1c[nH]cn1)C(=O)N1CCC[C@H]1C(=O)N[C@@H](CCCCNC(=N)N)C(=O)N[C@@H](CC(C)C)C(N)=O [compound 132] (Ac-GNNRPVYIPQPRPPHP[hArg]L-NH2) | – | – | – | – | – | – | – | 32 µg/mL (≈ 14.8 µM) | – | – | – | – | 32 µg/mL (≈ 14.8 µM) | 64 µg/mL (≈ 29.6 µM) | 32 µg/mL (≈ 14.8 µM) | 128 µg/mL (≈ 59.2 µM) |
| 146 (Guan-[Orn]NNRPVYIPRPRPPHP[Agp]L-NH2) [compound 146] | – | – | – | – | – | – | – | 32 µg/mL | 4 µg/mL | 64 µg/mL | 32 µg/mL | 125 µg/mL | – | – | – | – |
